Tests used:
NSA mice = test: Hypothermia study (block of CP 55,940-induced hypothermia); format: in vivo; parameters: Hypothermia 3 mg/kg / Hypothermia 0.3 mg/kg: unit not given here; settings: for Hypothermia ID50: block of CP 55,940-induced hypothermia
Method: . […] Core body temperatures were then obtained at various time points following CP 55,940 administration. Core body temperature (to the nearest 0.1° C.) was obtained by rectal probe.

native CB1 receptors = native CB1 receptors (Rattus norvegicus, UniProt P20272); test: CB1 receptor rat binding assay ([3H]SR141716A, rat brain membranes); settings: rat brain membranes, [3H]SR141716A; for Ki: read-out: Binding rat pKi (converted)
Chain of native CB1 receptors (P20272 whole entry): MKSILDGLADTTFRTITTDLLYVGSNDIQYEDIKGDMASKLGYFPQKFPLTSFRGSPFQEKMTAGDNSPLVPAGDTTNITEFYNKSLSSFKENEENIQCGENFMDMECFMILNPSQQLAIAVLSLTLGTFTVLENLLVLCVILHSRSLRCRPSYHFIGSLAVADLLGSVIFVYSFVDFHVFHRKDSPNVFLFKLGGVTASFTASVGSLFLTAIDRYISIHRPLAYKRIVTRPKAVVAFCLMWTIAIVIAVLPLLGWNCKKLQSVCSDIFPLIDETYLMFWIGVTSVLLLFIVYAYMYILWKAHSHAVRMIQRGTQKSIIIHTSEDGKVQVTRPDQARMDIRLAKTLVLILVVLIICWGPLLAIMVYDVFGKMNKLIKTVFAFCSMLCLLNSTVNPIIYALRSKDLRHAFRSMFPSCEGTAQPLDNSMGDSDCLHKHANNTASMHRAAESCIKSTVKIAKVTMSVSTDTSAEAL

With `CCCCNC(=O)c1ccc2c(c1)N=C(c1ccc(F)c(Cl)c1)c1ccccc1S2` the “Hypothermia 3 mg/kg” value (NSA mice) was 94.
`CCCCNC(=O)C1=C/C=C/Sc2cc(F)ccc2/C(c2ccc(Cl)cn2)=N\C=C\1` was tested, and the “Hypothermia 3 mg/kg” value (NSA mice) was 4.
For `CCONC(=O)c1ccc2c(c1)N=C(c1ccc(Cl)c(Cl)c1)c1ccccc1S2` [drawing 1512], the “Binding rat Inh %” value (native CB1 receptors) was 73% and the Ki (native CB1 receptors) was 79.4 nM.
For `CC(CNC(=O)c1ccc2c(c1)N=C(N1CCCCC1)c1cc(F)ccc1S2)c1ccccc1` (stereo not shown) [drawing 1513], the Ki (native CB1 receptors) was 79.4 nM.
Work on `O=C(NCc1ccc(Cl)cc1Cl)c1ccc2c(c1)N=C(N1CCCCC1)c1ccccc1S2` [drawing 1514] yielded a Ki (native CB1 receptors) of 79.4 nM.
In the case of `CCCCNC(=O)c1ccc2c(c1)N=C(c1ccc(Cl)s1)c1cc(F)ccc1S2` [drawing 1515], the “Binding rat Inh %” value (native CB1 receptors) is reported as 96% and the Ki (native CB1 receptors) is reported as 10 nM.
With `Cc1ccsc1C1=Nc2cc(C(=O)NCC(C)C)ccc2Sc2ccccc21` [drawing 1516] the “Binding rat Inh %” value (native CB1 receptors) was 98% and the Ki (native CB1 receptors) was 10 nM.
Work on `CCOC(=O)N1CCC(NC(=O)c2ccc3c(c2)N=C(C2CCCCC2)c2ccccc2S3)CC1` [drawing 1517] yielded a Ki (native CB1 receptors) of 10 nM.
In the case of `O=C(NC1CCCCC1)c1ccc2c(c1)N=C(c1ccc(Cl)cc1)c1ccccc1S2` [drawing 1518], the “Binding rat Inh %” value (native CB1 receptors) is reported as 96% and the Ki (native CB1 receptors) is reported as 10 nM.
With `O=C(NNC(=O)c1ccc2c(c1)N=C(c1ccc(F)cc1)c1ccccc1S2)c1ccccc1` [drawing 1519] the “Binding rat Inh %” value (native CB1 receptors) was 79% and the Ki (native CB1 receptors) was 79.4 nM.
For `Cc1ccsc1C1=Nc2cc(C(=O)NCCc3cccnc3)ccc2Sc2ccccc21` [drawing 1521], the “Binding rat Inh %” value (native CB1 receptors) was 93% and the Ki (native CB1 receptors) was 79.4 nM.
In the case of `O=C(NN1CCCCCC1)c1ccc2c(c1)N=C(c1ccc(Cl)cc1Cl)c1ccccc1S2` [drawing 1522], the “Binding rat Inh %” value (native CB1 receptors) is reported as 72% and the Ki (native CB1 receptors) is reported as 79.4 nM.
In the case of `O=C(NCc1cccc(Cl)c1)c1ccc2c(c1)N=C(N1CCC(F)CC1)c1ccccc1S2` [drawing 1523], the Ki (native CB1 receptors) is reported as 10 nM.
Work on `CC(CNC(=O)c1ccc2c(c1)N=C(c1ccc(Cl)cc1)c1cc(F)ccc1S2)c1ccccc1` (stereo not shown) [drawing 1524] yielded a Ki (native CB1 receptors) of 10 nM.
`CC(C)CNC(=O)c1ccc2c(c1)N=C(c1ccc(Cl)cc1)c1ccc(Cl)cc1S2` [drawing 1525] was tested, and the “Binding rat Inh %” value (native CB1 receptors) was 86% and the Ki (native CB1 receptors) was 10 nM.
For `C[C@@H]1CCC[C@H](C)N1NC(=O)c1ccc2c(c1)N=C(c1cccc(Cl)c1)c1ccccc1S2` [drawing 1526], the “Binding rat Inh %” value (native CB1 receptors) was 73% and the Ki (native CB1 receptors) was 10 nM.
For `CCCCNC(=O)c1ccc2c(c1)N=C(c1ccccn1)c1ccccc1S2` [drawing 1527], the “Binding rat Inh %” value (native CB1 receptors) was 108% and the Ki (native CB1 receptors) was 79.4 nM.
For `CC(C)NC(=O)c1ccc2c(c1)N=C(c1cccc(F)c1)c1ccccc1S2` [drawing 1528], the “Binding rat Inh %” value (native CB1 receptors) was 77% and the Ki (native CB1 receptors) was 79.4 nM.
`CCCC1=Nc2cc(C(=O)NCc3ccc(F)cc3)ccc2Sc2ccccc21` [drawing 1529] gave a Ki (native CB1 receptors) of 79.4 nM.
In the case of `Cc1ccsc1C1=Nc2cc(C(=O)NN3[C@H](C)CCC[C@@H]3C)ccc2Sc2ccccc21` [drawing 1530], the “Binding rat Inh %” value (native CB1 receptors) is reported as 65% and the Ki (native CB1 receptors) is reported as 79.4 nM.
For `Cc1ccsc1C1=Nc2cc(C(=O)NC3CCCCC3)ccc2Sc2ccccc21` [drawing 1531], the “Binding rat Inh %” value (native CB1 receptors) was 72% and the Ki (native CB1 receptors) was 10 nM.
With `CCCCNC(=O)c1ccc2c(c1)N=C(c1ccc(OC)cc1)c1ccccc1S2` [drawing 1532] the “Binding rat Inh %” value (native CB1 receptors) was 82% and the Ki (native CB1 receptors) was 10 nM.
`O=C(NCCCc1ccccc1)c1ccc2c(c1)N=C(N1CCCCC1)c1ccccc1S2` [drawing 1533] was tested, and the Ki (native CB1 receptors) was 10 nM.
In the case of `CCCCNC(=O)c1cnc2c(n1)N=C(c1ccccc1)c1ccccc1S2` [drawing 1534], the “Binding rat Inh %” value (native CB1 receptors) is reported as 88% and the Ki (native CB1 receptors) is reported as 12.6 nM.
For `COc1ccc(C2=Nc3cc(C(=O)NNC(=O)c4ccccc4)ccc3Sc3ccccc32)cc1` [drawing 1535], the “Binding rat Inh %” value (native CB1 receptors) was 68% and the Ki (native CB1 receptors) was 79.4 nM.
Compound `CCCC1=Nc2cc(C(=O)NCCc3ccc(OC)cc3OC)ccc2Sc2ccccc21` [drawing 1536] has a Ki (native CB1 receptors) of 79.4 nM.
With `O=C(NC1CCCCC1)c1ccc2c(c1)N=C(c1ccccn1)c1ccccc1S2` [drawing 1537] the “Binding rat Inh %” value (native CB1 receptors) was 77% and the Ki (native CB1 receptors) was 100 nM.
With `N#Cc1ccc(C2=Nc3cc(C(=O)NNCc4ccccc4)ccc3Sc3ccccc32)cc1` [drawing 1538] the “Binding rat Inh %” value (native CB1 receptors) was 65% and the Ki (native CB1 receptors) was 100 nM.
In the case of `O=C(NC1CCCCC1)c1ccc2c(c1)N=C(c1ccccc1F)c1ccccc1S2` [drawing 1539], the “Binding rat Inh %” value (native CB1 receptors) is reported as 83% and the Ki (native CB1 receptors) is reported as 12.6 nM.
With `O=C(NCCc1ccncc1)c1ccc2c(c1)N=C(c1ccc(Cl)s1)c1ccccc1S2` [drawing 1540] the “Binding rat Inh %” value (native CB1 receptors) was 109% and the Ki (native CB1 receptors) was 12.6 nM.
For `O=C(NCc1cccnc1)c1ccc2c(c1)N=C(c1ccc(F)cc1)c1ccccc1S2` [drawing 1541], the “Binding rat Inh %” value (native CB1 receptors) was 97% and the Ki (native CB1 receptors) was 12.6 nM.
For `O=C(NC1CCCC1)c1ccc2c(c1)N=C(c1ccc(Cl)s1)c1ccccc1S2` [drawing 1542], the “Binding rat Inh %” value (native CB1 receptors) was 91% and the Ki (native CB1 receptors) was 12.6 nM.
In the case of `CCOCCNC(=O)c1ccc2c(c1)N=C(c1ccc(C#N)cc1)c1ccccc1S2` [drawing 1543], the “Binding rat Inh %” value (native CB1 receptors) is reported as 64% and the Ki (native CB1 receptors) is reported as 100 nM.
`O=C(c1ccc2c(c1)N=C(c1ccc(F)cc1)c1ccccc1S2)N1CCCCC1` [drawing 1544] was tested, and the Ki (native CB1 receptors) was 100 nM.
With `Cc1ccc(N2CCN(C(=O)c3ccc4c(c3)N=C(c3ccc(Cl)cc3)c3ccccc3S4)CC2)c(C)c1` [drawing 1546] the Ki (native CB1 receptors) was 100 nM.
`O=C(NC1CCCC1)c1ccc2c(c1)N=C(c1cccc(Cl)c1)c1ccccc1S2` [drawing 1547] was tested, and the “Binding rat Inh %” value (native CB1 receptors) was 84% and the Ki (native CB1 receptors) was 12.6 nM.
Work on `CCOC(=O)N1CCC(NC(=O)c2ccc3c(c2)N=C(c2ccc(Cl)cc2)c2ccccc2S3)CC1` [drawing 1548] yielded a Ki (native CB1 receptors) of 12.6 nM.
In the case of `CCCC1=Nc2cc(C(=O)NCCc3cc(OC)ccc3OC)ccc2Sc2ccccc21` [drawing 1549], the Ki (native CB1 receptors) is reported as 100 nM.
`COc1ccc(C2=Nc3cc(C(=O)NC(C)C)ccc3Sc3ccccc32)cc1` [drawing 1550] was tested, and the “Binding rat Inh %” value (native CB1 receptors) was 79% and the Ki (native CB1 receptors) was 100 nM.
Compound `O=C(NCc1ccc(Cl)cc1Cl)c1ccc2c(c1)N=C(c1ccccc1F)c1ccccc1S2` [drawing 1551] has a Ki (native CB1 receptors) of 100 nM.
`O=C(NCCCC(F)(F)F)c1ccc2c(c1)N=C(c1ccc(Cl)cc1F)c1ccccc1S2` [drawing 1552] was tested, and the “Hypothermia 0.3 mg/kg” value (NSA mice) was 24, the “Hypothermia 3 mg/kg” value (NSA mice) was 55 and the Hypothermia ID50 (NSA mice) was 1.3 mg/kg.
In the case of `O=C(NCc1ccco1)c1ccc2c(c1)N=C(c1ccc(F)cc1)c1ccccc1S2` [drawing 1553], the “Hypothermia 0.3 mg/kg” value (NSA mice) is reported as −11, the “Hypothermia 3 mg/kg” value (NSA mice) is reported as 90 and the Hypothermia ID50 (NSA mice) is reported as 1.2 mg/kg.
`O=C(NCCCC(F)(F)F)c1ccc2c(c1)N=C(c1ccc(Cl)s1)c1ccccc1S2` [drawing 1554] was tested, and the “Hypothermia 0.3 mg/kg” value (NSA mice) was 11, the “Hypothermia 3 mg/kg” value (NSA mice) was 73 and the Hypothermia ID50 (NSA mice) was 1.7 mg/kg.
With `CCCCNC(=O)c1ccc2c(c1)N=C(c1ccc(Br)cn1)c1ccccc1S2` [drawing 1555] the “Hypothermia 3 mg/kg” value (NSA mice) was 80.
In the case of `CC(C)CNC(=O)c1ccc2c(c1)N=C(c1ccc(Cl)cc1)c1ccc(F)cc1S2` [drawing 1556], the “Hypothermia 3 mg/kg” value (NSA mice) is reported as 41.
In the case of `O=C(NCc1ccco1)c1ccc2c(c1)N=C(c1ccc(Cl)s1)c1ccccc1S2` [drawing 1557], the “Hypothermia 3 mg/kg” value (NSA mice) is reported as 66.
With `O=C(NCc1cccs1)c1ccc2c(c1)N=C(c1ccc(F)cc1)c1ccccc1S2` [drawing 1558] the “Hypothermia 0.3 mg/kg” value (NSA mice) was 19, the “Hypothermia 3 mg/kg” value (NSA mice) was 90 and the Hypothermia ID50 (NSA mice) was 1 mg/kg.
`O=C(NCc1cccs1)c1ccc2c(c1)N=C(c1cccc(F)c1)c1ccccc1S2` [drawing 1559] was tested, and the “Hypothermia 3 mg/kg” value (NSA mice) was 17.
For `CCCCNC(=O)c1ccc2c(c1)N=C(c1ccc(Cl)cc1)c1ccccc1S2` [drawing 1560], the “Hypothermia 0.3 mg/kg” value (NSA mice) was 15, the “Hypothermia 3 mg/kg” value (NSA mice) was 82 and the Hypothermia ID50 (NSA mice) was 0.79 mg/kg.
With `O=C(NN1CCCCC1)c1ccc2c(c1)N=C(c1ccc(Cl)s1)c1ccccc1S2` [drawing 1561] the “Hypothermia 3 mg/kg” value (NSA mice) was 42.

From US20080090805A1, “CB-1 MODULATING COMPOUNDS AND THEIR USE” (ACADIA PHARMACEUTICALS INC., priority 2005, published 2008)
